{
  "source": "paper PMC4771075",
  "about": "(Journal of medicinal chemistry, 2015)",
  "key": {"[1]": {"biological_target": "kappa opioid receptor (KOR) (Rattus norvegicus, UniProt P34975)", "sequence (P34975 whole entry)": "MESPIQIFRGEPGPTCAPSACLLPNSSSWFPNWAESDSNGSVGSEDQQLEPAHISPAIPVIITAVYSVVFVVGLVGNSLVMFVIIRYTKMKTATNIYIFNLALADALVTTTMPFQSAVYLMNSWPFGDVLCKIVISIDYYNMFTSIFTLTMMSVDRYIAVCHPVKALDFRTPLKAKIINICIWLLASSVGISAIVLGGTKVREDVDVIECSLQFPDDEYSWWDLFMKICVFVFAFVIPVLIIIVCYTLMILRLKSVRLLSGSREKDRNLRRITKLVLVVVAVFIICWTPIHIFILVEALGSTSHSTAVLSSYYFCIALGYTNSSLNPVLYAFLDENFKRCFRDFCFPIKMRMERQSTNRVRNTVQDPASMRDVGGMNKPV", "experiment": "biochemical", "format": "binding"}, "KOR [2]": {"biological_target": "T1, KOR (Rattus norvegicus, UniProt P34975)", "T1 sequence (P34975 whole entry)": "as above", "details": "read-out: KOR Ki found previously; cited from earlier work"}, "KOR [3]": {"biological_target": "T1, KOR", "details": "after a single dose; cited from earlier work"}, "mu opioid receptor (MOR)": {"biological_target": "mu opioid receptor (MOR) (Rattus norvegicus, UniProt P33535)", "sequence (P33535 whole entry)": "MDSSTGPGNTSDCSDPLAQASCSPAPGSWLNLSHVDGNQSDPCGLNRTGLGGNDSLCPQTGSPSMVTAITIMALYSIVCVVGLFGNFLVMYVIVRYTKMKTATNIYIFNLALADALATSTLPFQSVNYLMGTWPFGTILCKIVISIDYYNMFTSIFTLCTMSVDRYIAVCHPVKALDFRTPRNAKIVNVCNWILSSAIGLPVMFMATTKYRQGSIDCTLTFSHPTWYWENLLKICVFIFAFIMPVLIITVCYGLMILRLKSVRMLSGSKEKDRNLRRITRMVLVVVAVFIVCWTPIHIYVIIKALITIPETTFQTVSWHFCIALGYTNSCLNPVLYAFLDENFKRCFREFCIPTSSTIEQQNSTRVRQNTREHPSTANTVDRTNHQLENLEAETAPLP", "experiment": "Radioligand binding assay, MOR"}, "[4]": {"test_system": "stress-induced reinstatement of cocaine seeking behavior", "details": "mice, s.c. administration; cited from earlier work"}, "KOR [5]": {"biological_target": "T1, KOR", "experiment": "Schild analysis against Dyn A", "format": "biochemical"}, "KOR [6]": {"biological_target": "T1, KOR", "experiment": "Agonist stimulated [^35S]GTPγS binding assay, agonist efficacy", "format": "biochemical"}},
  "note": "Where “and” joins values, the source holds several entries; their conditions need not be identical. Equal entries are not always repeated. Where two headings read alike, the source gives them in different places. Square brackets hold non-standard residues; d marks the D form. * marks the point of attachment. Dap = NC[C@H](N)C(=O)O; Bn = c1ccc(C*)cc1",
  "data": [
    {"molecule": "CC[C@H](C)[C@H](NC(=O)[C@H](CCCN=C(N)N)NC(=O)[C@H](CCCN=C(N)N)NC(=O)[C@H](CC(C)C)NC(=O)[C@H](Cc1ccccc1)NC(=O)CNC(=O)CNC(=O)[C@@H](N)Cc1ccc(O)cc1)C(=O)N[C@@H](CCCN=C(N)N)C(=O)N1CCC[C@H]1C(=O)N[C@@H](CCCCN)C(N)=O", "note": "[Dyn A(1-11)NH2, reference compound]", "values": [
      {"measurement": "Ki", "setting": "[1]; KOR Ki (nM ± SEM)", "result": "2.6 ± 0.3", "unit": "nM"}
    ]},
    {"molecule": "CC[C@H](C)[C@H](NC(=O)[C@H](CCCNC(=N)N)NC(=O)[C@H](CCCNC(=N)N)NC(=O)[C@@H](CC(N)=O)NC(=O)[C@H](Cc1ccccc1)NC(=O)CNC(=O)CNC(=O)[C@H](Cc1ccc(O)cc1)NCc1ccccc1)C(=O)N[C@@H](CCCNC(=N)N)C(=O)N1CCC[C@H]1C(=O)N[C@@H](CCCCN)C(N)=O", "note": "[Peptide 2, NBn-Tyr^1-Gly-Gly-Phe-DAsn^5-Arg-Arg-Ile-Arg-Pro-Lys-NH2]", "values": [
      {"measurement": "fold lower KOR affinity compared to zyklophin", "setting": "[1]", "result": 4, "unit": "fold"}
    ]},
    {"molecule": "[N-benzyl-Tyr^1,D-Asn^5,Dap(Ac)^8]Dyn A(1-11)NH2 (Bn-YGGF[dN]RR[Dap](Ac)RPK-NH2; not fully specified (residue 1))", "values": [
      {"measurement": "Ki", "setting": "KOR [2]", "result": 66.9, "unit": "nM"}
    ]},
    {"molecule": "CC(C)[C@@H](CN1CC[C@@](C)(c2cccc(O)c2)[C@@H](C)C1)NC(=O)[C@H]1Cc2ccc(O)cc2CN1", "note": "[JDTic, (3R)-7-hydroxy-N-[(2S)-1-[(3R,4R)-4-(3-hydroxyphenyl)-3,4-dimethylpiperidin-1-yl]-3-methylbutan-2-yl]-1,2,3,4-tetrahydroisoquinoline-3-carboxamide]", "values": [
      {"measurement": "duration of KOR antagonist activity", "setting": "KOR [3]", "result": "lasting weeks after a single dose"}
    ]},
    {"molecule": "N=C(N)NCCC[C@@H]1NC(=O)[C@H](CCCNC(=N)N)NC(=O)[C@H](NC(=O)[C@H](Cc2ccccc2)NC(=O)CNC(=O)CNC(=O)[C@H](Cc2ccc(O)cc2)NCc2ccccc2)CC(=O)NC[C@@H](C(=O)N[C@@H](CCCNC(=N)N)C(=O)N2CCC[C@H]2C(=O)N[C@@H](CCCCN)C(N)=O)NC1=O", "note": "[Peptide 1, [N-benzyl-Tyr^1-cyclo(D-Asp^5,Dap^8)]dynorphin A(1-11)NH2]", "values": [
      {"measurement": "Ki", "setting": "[1]; KOR Ki 95% confidence interval, n = 10", "result": "30 to 160", "unit": "nM"},
      {"measurement": "Ki", "setting": "[1]; KOR Ki (nM ± SEM)", "result": "95.2 ± 28.8", "unit": "nM"},
      {"measurement": "Relative KOR affinity", "setting": "[1]; compared to zyklophin (1.0)", "result": 1.0},
      {"measurement": "Ki", "setting": "mu opioid receptor (MOR)", "result": "4380 ± 560", "unit": "nM"},
      {"measurement": "stress-induced reinstatement of cocaine seeking behavior", "setting": "[4]", "result": "suppressed"}
    ]},
    {"molecule": "Oc1ccc2c3c1O[C@H]1c4[nH]c5c(c4C[C@@]4(O)[C@@H](C2)N(CC2CC2)CC[C@]314)C[C@@]1(O)[C@H]2Cc3ccc(O)c4c3[C@@]1(CCN2CC1CC1)[C@H]5O4", "note": "[norBNI, nor-binaltorphimine, reference compound]", "values": [
      {"measurement": "Kb", "setting": "KOR [5]", "result": 0.074, "unit": "nM"},
      {"measurement": "duration of KOR antagonist activity", "setting": "KOR [3]", "result": "lasting weeks after a single dose"}
    ]},
    {"molecule": "CC(=O)NC[C@H](NC(=O)[C@H](CCCNC(=N)N)NC(=O)[C@H](CCCNC(=N)N)NC(=O)[C@H](CC(C)C)NC(=O)[C@H](Cc1ccccc1)NC(=O)CNC(=O)CNC(=O)[C@H](Cc1ccc(O)cc1)NCc1ccccc1)C(=O)N[C@@H](CCCNC(=N)N)C(=O)N1CCC[C@H]1C(=O)N[C@@H](CCCCN)C(N)=O", "note": "[Peptide 3, NBn-Tyr^1-Gly-Gly-Phe-Leu-Arg-Arg-Dap(Ac)^8-Arg-Pro-Lys-NH2]", "values": [
      {"measurement": "Ki ratio, Ki (MOR)/Ki (KOR)", "setting": "[1]", "result": 5},
      {"measurement": "Relative KOR affinity", "setting": "[1]", "result": 3.3},
      {"measurement": "fold higher KOR affinity compared to zyklophin", "setting": "[1]", "result": 3, "unit": "fold"},
      {"measurement": "Ki", "setting": "[1]; KOR Ki (nM ± SEM)", "result": "28 nM and 28.6 nM"},
      {"measurement": "Ki", "setting": "mu opioid receptor (MOR)", "result": "157 ± 25", "unit": "nM"},
      {"measurement": "fold higher MOR affinity than zyklophin", "setting": "mu opioid receptor (MOR)", "result": 28, "unit": "fold"},
      {"measurement": "EC50", "setting": "KOR [6]", "result": "39.5 ± 17.4", "unit": "nM"},
      {"measurement": "KOR efficacy in the GTPγS assay", "setting": "KOR [6]; screened at 10 µM, compared to the full agonist Dyn A(1-13)NH2", "result": 26, "unit": "%"}
    ]}
  ]
}
